Source: ChEMBL document CHEMBL4354780, “Targeting S. mutans biofilms: a perspective on preventing dental caries” (Medchemcomm, 2019)
In brackets after ≈: the same amount, converted by molar mass.

Columns and labels:
Streptococcus mutans [1] = assay: Antibiofilm activity against Streptococcus mutans assessed as decrease in biofilm viability at 0.053 to 53 uM by LIVE/DEAD staining based assay relative to control; type: functional
Streptococcus mutans [2] = assay: Antibiofilm activity against 24 hrs-old biofilm of Streptococcus mutans assessed as reduction in cell viability relative to control; type: functional
[3] = Binding affinity to Streptococcus mutans GtfC
Streptococcus mutans [4] = assay: Antibiofilm activity against Streptococcus mutans assessed as inhibition of biofilm formation; type: functional, organism-based; conditions: for IC50: Streptococcus mutans
[5] = Binding affinity to Streptococcus mutans GtfB
Streptococcus mutans [6] = assay: Antibiofilm activity against Streptococcus mutans assessed as inhibition of biofilm formation on hydroxyapatite surface at 5 ug/ml relative to control; type: functional
Streptococcus mutans [7] = assay: Antibiofilm activity against 24 hrs-old biofilm of Streptococcus mutans assessed as reduction in cell viability at 10 ug/ml relative to control; type: functional
Streptococcus mutans [8] = assay: Antibiofilm activity against 24 hrs-old biofilm of Streptococcus mutans assessed as reduction in cell viability at 5 ug/ml relative to control; type: functional
Streptococcus mutans [9] = assay: Antibiofilm activity against Streptococcus mutans assessed as inhibition of biofilm formation at 200 ug/ml after 4 hrs by crystal violet staining based assay relative to control; type: functional
Streptococcus mutans [10] = assay: Antibiofilm activity against Streptococcus mutans assessed as inhibition of biofilm formation at 200 ug/ml after 4 hrs by Congo red staining based assay relative to control; type: functional
Sortase A = target: T1, Sortase A (Streptococcus mutans, UniProt Q8CM62); assay: Binding affinity to Streptococcus mutans Sortase A
T1 sequence (Q8CM62 whole entry): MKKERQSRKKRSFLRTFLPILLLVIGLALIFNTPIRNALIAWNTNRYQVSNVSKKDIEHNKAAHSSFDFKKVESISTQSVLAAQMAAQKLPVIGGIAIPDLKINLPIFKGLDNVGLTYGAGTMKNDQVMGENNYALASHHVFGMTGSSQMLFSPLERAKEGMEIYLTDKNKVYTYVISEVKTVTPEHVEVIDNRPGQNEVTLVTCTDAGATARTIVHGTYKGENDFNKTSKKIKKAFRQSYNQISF

Streptococcus mutans [11] = assay: Antibiofilm activity against Streptococcus mutans assessed as inhibition of biofilm formation by measuring drug level causing induction of micro-colony phenotype; type: functional
Streptococcus mutans [12] = assay: Antibiofilm activity against Streptococcus mutans assessed as inhibition of biofilm formation at 12.5 ug/ml relative to control; type: functional
Streptococcus mutans [13] = assay: Antibiofilm activity against Streptococcus mutans assessed as inhibition of biofilm formation by measuring reduction in cell adherence at sub-MIC level relative to control; type: functional
Streptococcus mutans [14] = assay: Antibacterial activity against Streptococcus mutans; type: organism-based
Streptococcus mutans [15] = assay: Antibiofilm activity against Streptococcus mutans assessed as inhibition of biofilm formation on using surface coated compound at 0.06 uM relative to control; type: functional
Streptococcus mutans [16] = assay: Antibiofilm activity against Streptococcus mutans assessed as reduction in cell viability at 50 ug/ml relative to control; type: functional
Streptococcus mutans [17] = assay: Antibiofilm activity against Streptococcus mutans assessed as inhibition of biofilm formation at 250 uM on saliva-coated glass slides relative to control; type: functional
Streptococcus mutans [18] = assay: Antibacterial activity against Streptococcus mutans assessed as inhibition of planktonic growth relative to control; type: organism-based
Streptococcus mutans [19] = assay: Inhibition of Streptococcus mutans F-ATPase activity relative to control; conditions: concentration not given here
Streptococcus mutans [20] = assay: Antibiofilm activity against Streptococcus mutans assessed as reduction in biomass at 0.63 ug/ml relative to control; type: functional
[21] = Inhibition of Streptococcus mutans VicK autophosphorylation activity
[22] = Inhibition of Streptococcus mutans CiaH autophosphorylation activity
[23] = Inhibition of Streptococcus mutans LiaS autophosphorylation activity

CO[C@H](CC(=O)O)[C@@H](C)C(=O)[C@H](C)/C=C(\C)[C@H]1OC(=O)[C@H](O)[C@H](O)/C=C/[C@H](C)CCC[C@@H]1C
inhibition (INH) (Streptococcus mutans [1]): 55 - 65%

O=C1C=C(Br)/C(=C/Br)O1
inhibition (INH) (Streptococcus mutans [2]): 60%

Oc1cc(O)cc(/C=C/c2ccc(O)c(O)c2)c1 [PICEATANNOL]
Kd [3]: 14.6 µM
IC50 (Streptococcus mutans [4]): 52 µM

Oc1ccc(/C=C/c2cc(O)cc(O)c2)cc1 [RESVERATROL]
Kd [3]: 510 µM
Kd [5]: 144 µM

Cc1cc(O)c2c(c1)C(=O)c1cc(O)cc(O)c1C2=O [EMODIN]
inhibition at 5 µg/mL (Streptococcus mutans [6]): 90%

COc1ccc(CCNc2nc3ccccc3nc2NCCc2ccc(OC)cc2)cc1
inhibition at 10 µg/mL (Streptococcus mutans [7]): 79%
inhibition at 5 µg/mL (Streptococcus mutans [8]): 46%

CCCCCCCCCCCCCCCCCC(=O)Oc1cc(C(=O)O[C@@H]2Cc3c(O)cc(O)cc3O[C@@H]2c2cc(OC(=O)CCCCCCCCCCCCCCCCC)c(O)c(OC(=O)CCCCCCCCCCCCCCCCC)c2)cc(OC(=O)CCCCCCCCCCCCCCCCC)c1O
inhibition at 200 µg/mL (Streptococcus mutans [9]): 100%
inhibition at 200 µg/mL (Streptococcus mutans [10]): 100%

O=c1c(O)c(-c2ccc(O)cc2O)oc2cc(O)cc(O)c12 [MORIN]
IC50 (Sortase A): 27.2 µM

C=CCc1ccc(O)c(OC)c1 [EUGENOL]
INH (Streptococcus mutans [11]): 0.3125 µg/mL

NC(=O)c1ccccc1NC(=O)c1cc2cc([N+](=O)[O-])ccc2s1
Kd [3]: 0.0469 µM
Kd [5]: 3.7 µM
inhibition at 12.5 µg/mL (Streptococcus mutans [12]): 85%

CCC[C@@H]1CCC[C@]2(CCC)C(=O)CCC[C@@H]12
MBIC50 (Streptococcus mutans [4]): 39 µg/mL
inhibition (INH) (Streptococcus mutans [13]): 50%
MIC (Streptococcus mutans [14]): 156.25 µg/mL

O=C1C=C/C(=C\Br)O1
inhibition at 0.06 µM (Streptococcus mutans [15]): 63%

COc1cc(/C=C/C(=O)CC(=O)/C=C/c2ccc(O)c(OC)c2)ccc1O [CURCUMIN]
IC50 (Sortase A): 10.2 µM
MIC (Streptococcus mutans [14]): 125 µM

Cc1cccc(N/C=C2/C=C(c3ccc(Cl)cc3)OC2=O)n1
inhibition at 50 µg/mL (Streptococcus mutans [16]): 75%

O=C(/C=C/c1ccccc1)c1ccccc1 [CHALCONE]
inhibition at 250 µM (Streptococcus mutans [17]): 90%
IC50 (Sortase A): 5 µM

CCCCCCCCCCCCCCCc1c[nH]c(N)n1.Cl
growth inhibition (GI) (Streptococcus mutans [18]): < 13%
IC50 (Streptococcus mutans [4]): 0.94 µM

O=C(O[C@@H]1Cc2c(O)cc(O)cc2O[C@@H]1c1cc(O)c(O)c(O)c1)c1cc(O)c(O)c(O)c1 [EPIGALOCATECHIN GALLATE]
MBIC90 (Streptococcus mutans [4]): 15.6 µg/mL
inhibition (Streptococcus mutans [19]): 50%
MIC (Streptococcus mutans [14]): 31.25 µg/mL

C[C@H]1/C=C/[C@H]2OC(C)(C)O[C@H]2C(=O)O[C@H](c2cccc(CCCCC(=O)O)c2)[C@@H](C)CCC1
MBIC50 (Streptococcus mutans [4]): 63 µM

CCC(C)C1(O)C(C)C(=O)c2c(c(OC)c3ccc(-c4ccc5c(Cl)c6c(c(O)c5c4O)C(=O)C(C)C(O)(C(C)C)C6/C(=C\C(=O)O)OC)c(O)c3c2O)C1/C(C)=C\C(=O)O (stereo not given)
inhibition at 0.63 µg/mL (Streptococcus mutans [20]): 60%
IC50 [21]: 2.53 µg/mL (≈ 2.94 µM)
IC50 [22]: 4.29 µg/mL (≈ 4.98 µM)
IC50 [23]: 4.96 µg/mL (≈ 5.76 µM)
